In BindingDB's records for doi:10.1021/jm070133w (Nci-Fcrdc, 2007) one finds IC50 data, which are given here for one molecule.

What is called IC50 is the concentration that gives 50% inhibition. Low readings indicate greater potency, high ones weaker potency.

The target in this assay is T1, Glutamate carboxypeptidase 2 [44-750] (Homo sapiens, UniProt Q04609).
T1 construct: 44-750
As to the kind of experiment: Determination of Inhibition Concentration Values (IC50). Conditions: pH 7.4; 37 °C. How it is done: The inhibition concentration values of GCPII were determined using the radioenzymatic assay with [3H] NAAG (radiolabeled on the terminal glutamate). The enzyme was preincubated in the presence of increasing concentrations of inhibitors in reaction buffer. The reaction was initiated by adding the substrate to the reaction mixtures. After 20 min, the reaction was terminated, and the glutamate was separated from the reaction mixture by ion-exchange chromatography and quantified by liquid scintillation. Duplicate reactions were carried out for each experimental point. The IC50 values were calculated from plots of Vi/V0 (ratio of individual reaction rates to the rate of an uninhibited reaction) versus inhibitor concentration using the GraFit program (version 5.0.4, Erithacus Software Limited).

T1 sequence (Q04609 44-750): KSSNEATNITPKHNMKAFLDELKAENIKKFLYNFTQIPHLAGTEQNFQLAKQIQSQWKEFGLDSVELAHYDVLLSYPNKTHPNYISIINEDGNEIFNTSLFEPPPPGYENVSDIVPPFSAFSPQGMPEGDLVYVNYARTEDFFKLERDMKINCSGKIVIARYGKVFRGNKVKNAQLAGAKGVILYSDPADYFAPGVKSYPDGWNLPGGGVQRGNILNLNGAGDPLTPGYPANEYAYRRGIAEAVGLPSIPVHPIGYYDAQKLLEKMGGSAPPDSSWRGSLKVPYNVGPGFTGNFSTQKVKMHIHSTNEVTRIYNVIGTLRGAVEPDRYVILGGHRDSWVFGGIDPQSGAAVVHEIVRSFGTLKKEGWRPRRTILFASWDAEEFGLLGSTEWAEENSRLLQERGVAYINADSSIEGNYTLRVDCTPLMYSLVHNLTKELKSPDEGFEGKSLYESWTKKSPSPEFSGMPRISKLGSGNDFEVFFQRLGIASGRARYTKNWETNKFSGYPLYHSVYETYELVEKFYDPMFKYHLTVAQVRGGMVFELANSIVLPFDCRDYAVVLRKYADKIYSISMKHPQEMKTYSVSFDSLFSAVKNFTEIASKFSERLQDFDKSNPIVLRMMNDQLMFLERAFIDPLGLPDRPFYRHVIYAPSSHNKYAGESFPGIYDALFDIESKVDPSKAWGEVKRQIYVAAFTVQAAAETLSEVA

`Cc1onc(O)c1C[C@H](N)C(=O)O`: the IC50 was greater than 10 mM.
